Reference: patent publication US20240174596A1 (Northwestern University, priority 2021, published 2024)
Counter-ions that a name gives are not always drawn.

Assays:
Asp-AT = target: T1, Asp-AT (Sus scrofa, UniProt P00503); test: Inhibition of Asp-AT; format: biochemical, porcine
T1 construct: L-aspartate aminotransferase (Asp-AT) from the porcine heart; purchased Sigma-Aldrich G2751-2KU; host or cells: porcine heart
Description: All reagents for enzyme purification and assays were purchased from Sigma-Aldrich (St. Louis, MO, USA). […] All the enzyme assays for the inactivation, partition ratio, and dialysis experiment were recorded on a Synergy H1 hybrid multimode microplate reader (Biotek, USA) with transparent 96-well plates. […]
potassium phosphate at pH 7.4, 5.55 mM α-ketoglutarate, 1.11 mM NADH, 5.55 mM […], 5.55 units of malic dehydrogenase, and various concentrations of SS-1-148. […] The plate was shaken at room temperature for 1 min, and the absorbance was measured at 340 nm every 10 s for 90 min based on the conversion of NADH to NAD^+. The remaining Asp-AT activity percentage was calculated according to the corresponding concentrations. […]

hOAT = target: T2, hOAT (Homo sapiens, UniProt P04181); test: Transient state (stopped-flow) measurements of hOAT reacting with SS-1-148; format: biochemical; settings: 10° C., pH 7.5
T2 construct: made in house; host or cells: E. coli BL21(DE3)
T2 sequence (P04181 26-439): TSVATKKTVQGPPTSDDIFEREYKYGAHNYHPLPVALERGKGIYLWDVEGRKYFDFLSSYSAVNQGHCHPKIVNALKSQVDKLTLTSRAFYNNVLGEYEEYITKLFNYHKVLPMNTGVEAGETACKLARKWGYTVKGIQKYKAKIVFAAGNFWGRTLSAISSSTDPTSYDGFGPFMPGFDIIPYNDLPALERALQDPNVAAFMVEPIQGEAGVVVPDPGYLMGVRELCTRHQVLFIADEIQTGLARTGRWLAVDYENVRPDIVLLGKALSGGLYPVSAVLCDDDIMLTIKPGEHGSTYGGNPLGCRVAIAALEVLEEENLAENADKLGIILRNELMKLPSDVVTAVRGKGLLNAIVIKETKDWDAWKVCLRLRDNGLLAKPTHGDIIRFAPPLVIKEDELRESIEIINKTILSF
Description: FIG. 6. Transient state absorption changes observed at 275, 420, and 560 nm for hOAT reacting with SS-1-148. OAT (12.7 μM final) was mixed with SS-1-148 (126, 251, 502, 1004, 2008, 4016 μM), and CCD spectra were collected for the timeframe 0.009-49.2 seconds. (A) The data observed at 420 nm fit to a linear combination of three exponential terms according to equation (3) described in the supporting information. The arrow indicates the trend observed in amplitude for increasing inhibitor concentration. (B) The observed rate constant dependence of the first phase observed at 420 nm fit to equation (5) described in the supporting information. The values for k2 and k3 indicated are the average values obtained from the fit in FIG. 5A. The fit is shown in red dashes. (C) The data observed at 560 nm. The curved arrow indicates the trend observed in amplitude for increasing inhibitor concentration. […] The fit is shown in red dashes. (D) The data observed at 275 nm over 2000 sec obtained in the presence of 8032 μM SS-1-148 fit to a linear combination of two exponential terms according to equation (4) in the supporting information. The fit is shown in red dashes.
FIG. 7. Partial deconvolution by singular value decomposition (SVD) of transient state absorption changes observed for hOAT reacting with SS-1-148. hOAT (6.94 μM; final concentration) was reacted in a stopped-flow spectrophotometer with SS-1-148 (1040 μM; final concentration) at 10° C. To obtain time resolution sufficient to analyze kinetic rates spanning four orders of magnitude, a composite CCD absorbance dataset was prepared spanning 250-800 nm and 0.0137-9843 sec by splicing together averaged short and long time-frame datasets. […] The species concentration profile based on the rate constants used to fit the dataset (B). A three-dimensional depiction of a subset of spectra from the dataset analyzed (C).
For each concentration of the inhibitor, CCD spectral datasets were collected in duplicate for 50 sec, and the duplicates were averaged For the highest concentration of inhibitor (8 mM) duplicate CCD datasets were acquired for two timeframes (0.0025-12.4 sec and 0.0025-2480 sec). Duplicate datasets for anyone timeframe were averaged and then spliced together at 12 sec to form one dataset with sufficient time resolution to adequately describe rapid and slow processes. […] In the process, the rate constants were fixed to the values measured using analytical fits to data extracted for single wavelengths that assume successive first-order processes according to the equations (3), (4), and (5). Abs is absorbance, Ax are the amplitudes associated with each observed phase, kx are the corresponding rate constants, and C is the absorbance endpoint.

Plasma PK profiles = format: in vivo

T1 sequence (P00503 2-413 limits assumed): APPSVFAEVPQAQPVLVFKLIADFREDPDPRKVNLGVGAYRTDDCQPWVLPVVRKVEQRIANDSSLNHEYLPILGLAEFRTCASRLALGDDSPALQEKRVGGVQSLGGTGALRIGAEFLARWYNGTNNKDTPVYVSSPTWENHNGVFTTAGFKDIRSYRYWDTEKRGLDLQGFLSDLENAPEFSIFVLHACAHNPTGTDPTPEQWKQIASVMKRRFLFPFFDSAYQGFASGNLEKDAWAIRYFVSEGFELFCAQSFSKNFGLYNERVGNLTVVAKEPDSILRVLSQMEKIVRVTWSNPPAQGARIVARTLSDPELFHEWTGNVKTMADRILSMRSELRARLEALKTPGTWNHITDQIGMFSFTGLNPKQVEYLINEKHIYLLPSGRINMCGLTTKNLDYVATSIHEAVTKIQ

Structure (SMILES): N[C@H]1C=C(C(=O)O)CC1(F)F [SS-1-148, (S)-3-Amino-4,4-difluorocyclopent-1-enecarboxylic acid hydrochloric acid salt]
- Ki (Asp-AT; read-out: Off-target effects (Ki, mM) Asp-AT): > 20 mM
- inhibition on Asp-AT (Asp-AT; up to 10 mM): did not show noticeable inhibition
- rate constant of final phase (increase at ~275 nm) (hOAT): 0.007 s⁻¹
- rate dependence of second external aldimine formation (bimolecular reaction) (hOAT): 6200 M⁻¹ s⁻¹
- rate of accumulation of quinonoid species (~560 nm) (hOAT): 0.4 s⁻¹
- rate of quinonoid decay (hOAT): 0.09 s⁻¹
- AUC(0-inf) (Plasma PK profiles; IV (5 mg/kg)): 1160 ng·h/mL
- AUC(0-t) (Plasma PK profiles; IV (5 mg/kg)): 1150 ng·h/mL
- Cmax (Plasma PK profiles; IV (5 mg/kg)): 4680 ng/mL
- T1/2 (Plasma PK profiles; IV (5 mg/kg)): 0.43 H
- clearance (Plasma PK profiles; IV (5 mg/kg)): 72 mL/min/kg
- Vd (Plasma PK profiles; IV (5 mg/kg), read-out: Vss): 1.01 L/kg
- AUC(0-inf) (Plasma PK profiles; PO (30 mg/kg)): 8530 ng·h/mL
- AUC(0-t) (Plasma PK profiles; PO (30 mg/kg)): 8440 ng·h/mL
- Cmax (Plasma PK profiles; PO (30 mg/kg)): 8080 ng/mL
- Tmax (Plasma PK profiles; PO (30 mg/kg)): 15 min
- bioavailability (Plasma PK profiles; PO (30 mg/kg)): ~100%
